Consider 24 compounds from patent US11000511B2, “Chemical compounds as antibiotics” (priority 2017, dated 2021).

For assay [1], the target named is T1, purified LasB protein from P. aeruginosa (Pseudomonas aeruginosa, UniProt P14756).
T1 construct: purchased Merck or Charles River Laboratories
The experiment in a line: Fluorometric assay to determine Ki (Assay 1). The format is biochemical. Particulars: Ki (μM) Assay 1, purified LasB, substrate Abz-Ala-Gly-Leu-Ala-p-Nitro-Benzyl-Amide 250 μM, Ki calculated from IC50; inhibitor 0.006 to 200 μM. Here is the method: (§1) Experiments were therefore conducted (1) to measure the potency of inhibition of compounds of the invention against purified Pseudomonas aeruginosa LasB enzyme and also experiments were conducted (2) to measure the ability of compounds of the invention to inhibit LasB-catalysed elastin degradation. The first assay uses a commercial fluorescent synthetic peptide and purified LasB enzyme. The LasB hydrolysis kinetics are measured allowing the determination of the IC50 and Ki of the inhibitors; the second is a more physiological assay using dialysed Pseudomonas aeruginosa supernatant as source of enzyme, plus its natural substrate Elastin. It is an “end point assay” that determines the percentage of LasB inhibition by each compound for one particular time point and inhibitor concentration. Technical details are described below:
This assay uses commercially available substrate (Abz-Ala-Gly-Leu-Ala-p-Nitro-Benzyl-Amide (Ex: 340 nm, Em: 415 nm) from Peptide International) and purified LasB protein from P. aeruginosa (provided by Merck or Charles River Laboratories). It is performed to determine LasB elastase activity and assess compound inhibition in 96-well plate format. Some compounds of Formula (I) were assessed using the method of Assay 1 (described below). Other compounds of Formula (I) were assessed using the alternative but equivalent method of Assay 2 (described below).
Method: 10 to 140 ng/ml purified LasB is incubated with 250 μM Abz-Ala-Gly-Leu-Ala-p-Nitro-Benzyl-Amide in 50 mM Tris-HCl pH 7.4, 2.5 mM CaCl2), 0.01% of Triton X100 at 37° C. LasB activity (corresponding to fluorescence emission induced by substrate hydrolysis) is measured over 30 min at 37° C. with a fluorescence plate reader such as the Perkin Elmer Envision or similar. Different range of inhibitor concentrations are routinely assessed depending of inhibitor potency from 0.006 to 200 μM (Assay 1; 2-fold dilutions series) or from 0.0016 to 200 μM (Assay 2; 2-fold dilutions series) in order to determine IC50.
The equation used to calculate the Ki from IC50 is: Ki=IC50/(1+([S]/Km)) where [S]=250 μM and Km=214 μM.

Assay [2] deals with T2, LasB elastase activity in dialysed supernatant from P. aeruginosa strain PA01 (Pseudomonas aeruginosa, UniProt P14756).
T2 construct: uses as source of enzyme dialysed supernatant from P. aeruginosa; endogenous in cells; host or cells: P. aeruginosa strain PA01 culture supernatant, filtered and dialysed
T2 sequence (P14756 198-498): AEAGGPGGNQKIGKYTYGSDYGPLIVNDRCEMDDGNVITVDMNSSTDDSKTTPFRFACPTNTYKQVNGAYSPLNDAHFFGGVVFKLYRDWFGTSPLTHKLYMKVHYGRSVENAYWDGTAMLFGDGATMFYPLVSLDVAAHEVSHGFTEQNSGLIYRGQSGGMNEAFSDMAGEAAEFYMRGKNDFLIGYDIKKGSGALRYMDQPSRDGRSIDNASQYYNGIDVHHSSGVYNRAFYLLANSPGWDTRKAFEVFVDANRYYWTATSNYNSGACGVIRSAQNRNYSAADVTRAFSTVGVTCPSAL
Briefly: Elastin Congo Red assay to determine % inhibition (Assay 1). Format: biochemical. Conditions: for inhibition at 50 µM: read-out: Elastin hydrolysis % inhibition @ 50/25 μM inhibitor concentration Assay 1. Here is the method:
as §1
The Elastin assay uses as source of enzyme dialysed supernatant from P. aeruginosa and the elastin congo red as substrate. The natural LasB substrate, elastin, is complexed with the congo red dye (Elastin Congo Red, ECR). The elastolysis activity from the culture supernatant will degrade elastin and release the congo red dye into the supernatant. This red dye release can be measured with a spectrophotometer. Some compounds of Formula (I) were assessed using the method of Assay 1 (described below). Other compounds of Formula (I) were assessed using the alternative but equivalent method of Assay 2 (described below).
Method (Assay 1): To determine LasB elastase activity and assess compound inhibition, an overnight culture of P. aeruginosa strain PA01 is diluted thousand-fold in LB medium. This diluted solution is incubated during 19 hours in a shaking incubator. Culture supernatants are recovered by centrifugation and filtrated through a […] filter. These supernatants are dialysed (filtration molecules <20 kDa) into a 50 mM Tris pH 7.4, 2.5 mM CaCl2 solution at 4° C. under agitation for 24 hours. Supernatant dialysed is then mixed volume/volume with the ECR suspension (20 mg/mL of ECR in 100 mM Tris buffer supplemented with 1 mM CaCl2) supplemented with TritonX 100 (final concentration of 0.01%) in presence of different concentrations of compound (routinely 50 and 25 μM). The mixed reaction is then incubated for 24 hours in a 37° shaking incubator. As a negative control, the mixed supernatant is replaced by Tris solution (50 mM Tris pH 7.4, 2.5 mM CaCl2). The reaction supernatant is recovered by centrifugation and the release of congo red is measured by its absorbance at OD520. Percentage inhibition is determined using the following equation: (OD520 value of DMSO SN−OD520 value of LB)−(OD520 value of Compound SN−OD520 value of LB)/(OD520 value of DMSO SN−OD520 value of LB)×100.

T1 sequence (P14756 198-498): as above

Usually Ki stands for the dissociation constant of the complex between target and ligand, obtained from inhibition or displacement. Consider `NC1CC(Oc2ccc3nc(CNC(=O)C4(CC(=O)O)Cc5ccccc5C4)sc3c2)C1` (mixture of isomers) [Example 78, 2-[2-[[6-(3-aminocyclobutoxy)-1,3-benzothiazol-2-yl]methylcarbamoyl]indan-2-yl]acetic acid], for which the Ki in assay [1] was 0.3 to 2 µM.

For the compound `CC(NC(=O)C1(CC(=O)O)Cc2ccccc2C1)c1cc2ccccc2o1` (single isomer, unassigned) [Example 58, 2-[2-[[(1R*)-1-(benzofuran-2-yl)ethyl]carbamoyl]indan-2-yl]acetic acid], in assay [2], the inhibition at 50 µM lay in the range of 30 to 60%. The Ki in assay [1] is 2 to 10 µM.

Consider `CC(NC(=O)C1(CC(=O)O)Cc2ccccc2C1)c1cc2ccccc2o1` (single isomer, unassigned) [Example 59, 2-[2-[[(1S*)-1-(benzofuran-2-yl)ethyl]carbamoyl]indan-2-yl]acetic acid], for which, in assay [2] (50 μM inhibitor concentration, elastin congo red, 24 hours, OD520), the “Elastin hydrolysis % inhibition @ 50/25 μM inhibitor concentration Assay 1” value is listed as “B (30 to 60% inhibition)”. Further, in assay [1], the Ki was 0.3 to 2 µM.

Turning to `O=C(O)CC1(C(=O)NCc2nc3cc(Cl)ccc3[nH]2)Cc2ccccc2C1` [Example 1, 2-(2-{[(5-Chloro-1H-1,3-benzodiazol-2-yl)methyl]carbamoyl}-2,3-dihydro-1H-inden-2-yl)acetic acid], in assay [2], the inhibition at 50 µM lay in the range of 30 to 60%. For the same compound, the Ki in assay [1] is 0.3 to 2 µM.

As to `O=C(O)CC1(C(=O)NCc2cc3ccccc3cn2)Cc2ccccc2C1` [Example 2, 2-[2-(3-isoquinolylmethylcarbamoyl)indan-2-yl]acetic acid], the inhibition at 50 µM in assay [2] is 30 to 60%. Also, the Ki in assay [1] was 0.3 to 2 µM.

Consider `Cn1cc(CNC(=O)C2(CC(=O)O)Cc3ccccc3C2)cn1` [Example 3, 2-[2-[(1-methylpyrazol-4-yl)methylcarbamoyl]-indan-2-yl]acetic acid], for which, in assay [2], the inhibition at 50 µM fell in the range of 30 to 60%. Moreover, the Ki in assay [1] was 2 to 10 µM.

In the case of `O=C(O)CC1(C(=O)NCc2cc3ccccc3o2)Cc2ccccc2C1` [Example 5, 2-(2-{[(1-Benzofuran-2-yl)methyl]carbamoyl}-2,3-dihydro-1H-inden-2-yl)acetic acid], the inhibition at 50 µM in assay [2] fell in the range of 30 to 60%. In addition, the Ki in assay [1] was 0.3 to 2 µM.

Regarding `Cc1ccc2oc(CNC(=O)C3(CC(=O)O)Cc4ccccc4C3)cc2c1` [Example 6, 2-(2-{[(5-methyl-1-benzofuran-2-yl)methyl]carbamoyl}-2,3-dihydro-1H-inden-2-yl)acetic acid], the inhibition at 50 µM in assay [2] is over 60%. For the same compound, in assay [1], the Ki is under 0.3 µM.

For `Cc1ccc2c(c1)CC(CNC(=O)C1(CC(=O)O)Cc3ccccc3C1)O2` (centres unmarked) [Example 7, 2-[2-[(5-methyl-2,3-dihydrobenzofuran-2-yl)methylcarbamoyl]indan-2-yl]acetic acid], the inhibition at 50 µM in assay [2] was over 60%. Also, in assay [1], the Ki is under 0.3 µM.

For the compound `O=C(O)CC1(C(=O)NC2CCN(c3cccc(Cl)c3)C2)Cc2ccccc2C1` (centres unmarked) [Example 8, 2-[2-[[1-(3-chlorophenyl)pyrrolidin-3-yl]carbamoyl]indan-2-yl]acctic acid], the inhibition at 50 µM in assay [2] was over 60%. Further, in assay [1], the Ki was under 0.3 µM.

`Cn1c(CNC(=O)C2(CC(=O)O)Cc3ccccc3C2)cc2ccccc21` [Example 9, 2-[2-[(1-methylindol-2-yl)methylcarbamoyl]indan-2-yl]acetic acid]: the inhibition at 50 µM in assay [2] was over 60%. The Ki in assay [1] was under 0.3 µM.

`O=C(O)CC1(C(=O)NCc2nc3ccccc3s2)Cc2ccccc2C1` [Example 10, 2-(2-{[(1,3-Benzothiazol-2-yl)methyl]carbamoyl}-2,3-dihydro-1H-inden-2-yl)acetic acid]: the inhibition at 50 µM in assay [2] was over 60%. Also, the Ki in assay [1] is under 0.3 µM.

Consider `O=C(O)CC1(C(=O)NCCc2nc3ccccc3o2)Cc2ccccc2C1` [Example 31, 2-[2-[2-(1,3-benzoxazol-2-yl)ethylcarbamoyl]indan-2-yl]acetic acid], for which, in assay [1], the Ki is 2 to 10 µM.

As to `C[N+](C)(C)CCNc1ccc2sc(CNC(=O)C3(CC(=O)[O-])Cc4ccccc4C3)nc2c1` [Example 77, 2-[2-[[5-[2-(trimethylammonio)ethylamino]-1,3-benzothiazol-2-yl]methylcarbamoyl]indan-2-yl]acetate], the Ki in assay [1] is 0.3 to 2 µM.

As for `CN(C)C1CC(Oc2ccc3nc(CNC(=O)C4(CC(=O)O)Cc5ccccc5C4)sc3c2)C1` (centres unmarked) [Example 79, 2-[2-[[6-[3-(dimethylamino)cyclobutoxy]-1,3-benzothiazol-2-yl]methylcarbamoyl]indan-2-yl]acetic acid], in assay [1], the Ki is 0.3 to 2 µM.

Take `CN(C)Cc1ccc2nc(CNC(=O)C3(CC(=O)O)Cc4ccccc4C3)sc2c1` [Example 81, 2-[2-[[6-[(dimethylamino)methyl]-1,3-benzothiazol-2-yl]methylcarbamoyl]indan-2-yl]acetic acid]: the Ki in assay [1] was 2 to 10 µM.

In the case of `C[N+](C)(C)Cc1ccc2nc(CNC(=O)C3(CC(=O)[O-])Cc4ccccc4C3)sc2c1` [Example 82, 2-[2-[[6-[(trimethylammonio)methyl]-1,3-benzothiazol-2-yl]methylcarbamoyl]indan-2-yl]acetate], in assay [1], the Ki is 2 to 10 µM.

Take `NCCc1ccc2sc(CNC(=O)C3(CC(=O)O)Cc4ccccc4C3)nc2c1` [Example 83, 2-[2-[[5-(2-aminoethyl)-1,3-benzothiazol-2-yl]methylcarbamoyl]indan-2-yl]acetic acid]: in assay [1], the Ki is 0.3 to 2 µM.

Consider `CN(C)Cc1ccc2sc(CNC(=O)C3(CC(=O)O)Cc4ccccc4C3)nc2c1` [Example 84, 2-[2-[[5-[(dimethylamino)methyl]-1,3-benzothiazol-2-yl]methylcarbamoyl]indan-2-yl]acetic acid], for which, in assay [1], the Ki was 0.3 to 2 µM.

On to `C[N+](C)(C)Cc1ccc2sc(CNC(=O)C3(CC(=O)[O-])Cc4ccccc4C3)nc2c1` [Example 85, 2-[2-[[5-[(trimethylammonio)methyl]-1,3-benzothiazol-2-yl]methylcarbamoyl]indan-2-yl]acetate], for which the Ki in assay [1] was 0.3 to 2 µM.

With `CN(C)CCc1ccc2sc(CNC(=O)C3(CC(=O)O)Cc4ccccc4C3)nc2c1` [Example 97, 2-[2-[[5-[2-(dimethylamino)ethyl]-1,3-benzothiazol-2-yl]methylcarbamoyl]indan-2-yl]acetic acid], the Ki in assay [1] was 0.3 to 2 µM.

With `C[N+](C)(C)CCc1ccc2sc(CNC(=O)C3(CC(=O)[O-])Cc4ccccc4C3)nc2c1` [Example 98, 2-[2-[[5-[2-(trimethylammonio)ethyl]-1,3-benzothiazol-2-yl]methylcarbamoyl]indan-2-yl]acetate], the Ki in assay [1] is 0.3 to 2 µM.

On to `CC(C)(N)c1nnc([C@H](Cc2c[nH]c3ccccc23)NC(=O)C2(CC(=O)O)Cc3ccccc3C2)o1` [Example 119, (S)-2-(2-((1-(5-(2-aminopropan-2-yl)-1,3,4-oxadiazol-2-yl)-2-(1H-indol-3-yl)ethyl)carbamoyl)-2,3-dihydro-1H-inden-2-yl)acetic acid], for which, in assay [1], the Ki is 0.3 to 2 µM.

Consider `O=C(O)CC1(C(=O)NCc2nc3ccccc3s2)Cc2cc(Cl)c(Cl)cc2C1` [Example 121, 2-(2-((benzo[d]thiazol-2-ylmethyl)carbamoyl)-5,6-dichloro-2,3-dihydro-1H-inden-2-yl)acetic acid], for which, in assay [1], the Ki is 0.3 to 2 µM.
